Assay results from patent US20250339569A1, “CARBONIC ANHYDRASE IX LIGANDS” (priority 2021, published 2025).
Starred links: 1 amine or outer side, 2 acyl side, 3 side chain; linkers in the order of their positions; H or OH if unused. Positions of bridges follow the written chain, without caps; N, C: chain ends. Non-standard residues stand in square brackets, D forms with d. Residues, ends and D or L forms follow the SMILES beside them. *: point of attachment. X16 = NC(=O)[C@H](CCCCNC(=O)CN1CCN(CC(=O)O)CCN(CC(=O)O)CCN(CC(=O)O)CC1)NC(=O)CCC(=O)NCCCOCCOCCOCCCN*; NH(CH2)5NHDOTA = O=C(O)CN1CCN(CC(=O)O)CCN(CC(=O)NCCCCCN*)CCN(CC(=O)O)CC1; NH(CH2)3NHDOTA = O=C(O)CN1CCN(CC(=O)O)CCN(CC(=O)NCCCN*)CCN(CC(=O)O)CC1; X3 = O=C(O)CN1CCN(CC(=O)O)CCN(CC(=O)NCCCOCCOCCOCCCN*)CCN(CC(=O)O)CC1; DOTA = O=C(O)CN1CCN(CC(=O)O)CCN(CC(=O)*)CCN(CC(=O)O)CC1; mXylylene = c1cc(C[*:1])cc(C[*:2])c1; X2 = O=C(CN1CCC(N[*:1])CC1)[*:2]; tBuAla = CC(C)(C)C[C@H](N)C(=O)O; Suc = O=C(CCC(=O)[*:2])[*:1]; Ac6c = NC1(C(=O)O)CCCCC1; Nlys = NCCCCNCC(=O)O

Tests used:
[1] = target: T1, CAIX-expressing human HT-29 colorectal cancer cells (Homo sapiens, UniProt Q16790); assay: FACS binding assay (IC50 determination, competition with tracer 3BP-2776 or 3BP-4149); conditions: FACS competition on HT-29 cells, Tracer ID 3BP-2776 (10 nM, biotin-labeled), 4° C., 1 hour; read-out: pIC50 category (activity) (converted)
T1 construct: CAIX-expressing human HT-29 colorectal cancer cells; host or cells: HT-29 human colorectal cancer cells
Outline: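 HT-29 cells in FACS buffer (PBS, 1% FCS) at 500.000 cells/ml were exposed to compounds competing with a labelled tracer, with biotinylated compounds detected by 1 μg/mL APC-streptavidin for 30 min on ice. APC/Cy5 median fluorescence was read by flow cytometry and IC50 derived by 4PL fit.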

NEP = target: T2, NEP (Homo sapiens, UniProt P08473); assay: Proteolytic stability assay against NEP; type: in vitro ADME; conditions: human, recombinant soluble human NEP, 100 ng/mL NEP, 10 μM compound, 37°C, read-out: % intact compound remaining after 24 h incubation
T2 construct: Recombinant soluble human NEP; purchased BioTechne, Wiesbaden, Germany
Protocol: (§1) To assess the stability of compounds against NEP, the compounds were subjected to an in vitro assay based on the protocol described by Edelson et al. (Edelson et al., Pulmonary pharmacology & therapeutics, 2013, 26, 229-238).
(§2) Recombinant soluble human NEP (BioTechne, Wiesbaden, Germany) at a concentration of 100 ng/mL was mixed with the compound (10 μM) and a stable internal standard (10 μM) and incubated at 37° C. After several time points, samples were taken and analyzed with LC-MS.
(§3) The activity of NEP was examined using a commercially available chromogenic substrate of NEP.

[2] = Plasma stability assay, mouse plasma; conditions: for remaining at 4 h, […]: mouse, plasma (K2EDTA); for % intact compound remaining (incubation time): mouse plasma, 37°C, 4 h
[3] = target: T3, human carbonic anhydrase IX (hCAIX-Fc) (Homo sapiens, UniProt Q16790); assay: Surface plasmon resonance assay with hCAIX-Fc; type: binding; conditions: 25° C.; for t1/2 category (activity): SPR dissociation half-life, hCAIX-Fc; for Kd: SPR, hCAIX-Fc captured, read-out: pKD category (activity) (converted)
T3 construct: purchased SinoBliological (Sino Biological) 10107-H02H

[4] = target: T4, Recombinant soluble human NEP (Homo sapiens, UniProt P08473); assay: Proteolytic stability assay against NEP; type: in vitro ADME; conditions: 100 ng/mL NEP, 10 μM compound, 37°C
T4 construct: Recombinant soluble human NEP; purchased BioTechne, Wiesbaden, Germany
Protocol: as §1, §2, §3

human CAIX = human CAIX (Homo sapiens, UniProt Q16790); assay: In vitro SPR binding assay of DPI-4452, natLu-DPI-4452 and natGa-DPI-4452 to CAIX (anti-human Fc capture); set-up: purchased SinoBliological (Sino Biological) 10107-H02H; conditions: SPR
Protocol: Surface Plasmon Resonance (SPR) studies were performed on a Biacore™ T200 using a ligand capture approach. Basically, anti-human Fc antibodies were immobilized on the surface of a sensor chip and CAIX was captured on the functionalized surface via its Fc Tag.
Then, each compound was injected at increasing concentrations on the captured CAIX in order to measure the in real-time interaction of the compound to its target (i.e. the captured CAIX). The in real-time monitoring of the association and dissociation of the interaction gives access to the interaction kinetics parameters (i.e. the association and dissociation rate constants and the resulting affinity constants).
• A series S CM5 sensor chip was used (Cytiva). • All reagents used for the immobilization procedure were part of the Amine Coupling Kit, type 2 and/or the Human Antibody Capture Kit (Cytiva). The running buffer (HBS-EP+) was prepared by 10-fold dilution of the stock HBS-EP+ 10× solution (Cytiva). • Anti-human Fc antibodies stock solution (0.5 mg/mL in 0.15 M NaCl) was diluted in 10 mM sodium acetate pH 5.0 to a final concentration of 25 μg/mL directly into a plastic vial 7 mm. • Amine coupling reagents were transferred into plastic vials 7 mm as follow: • 95 μL of 0.4 M 1-ethyl-3-(3-dimethylaminopropyl)carbodiimide (EDC). • 95 μL of 0.1 M N-hydroxysuccinimide (NHS). • An empty plastic vial 7 mm was added in the Biacore™ sample rack for mixing. • 150 μL of 1 M ethamolamine-HCl, pH 8.5. • Plastic vials were closed with rubber caps and the sample rack was inserted into the Biacore™ T200 sample compartment. • The Biacore™ T200 Amine Wizard was used to immobilize the anti-Human Fc antibodies on the four flow-cells of a series S CM5 sensor chip simultaneously with defined contact time of 360 seconds and flow-rate of 5 μL/min. • The immobilization procedure was performed at 25° C., following Cytiva's recommendations, as described in Table 23.
This procedure allowed to reach immobilization levels between 6000 and 9000 RU of anti-human Fc antibodies on the sensor chip surface.
• CAIX (Sino Biological, 10107-H02H) stock solution was prepared from lyophilized material reconstituted with deionized water to a concentration of 0.25 μg/mL (3.69 μM), following the supplier recommendations. • CAIX working solution was obtained after dilution of CAIX stock solution with PBS-P+1×, 0.1% DMSO to a final concentration of 200 nM directly in a Biacore™ plastic vial.
• For each measurement, the raw surface plasmon resonance response (RU) was plotted against time (s) as a sensorgram using the Biacore™ T200 Control Software. • Raw data were corrected by double referencing with subtraction of the signal of both the reference flow-cell and the blank cycle. • The association and dissociation rate constants (ka and kd, respectively), as well as the dissociation constant KD and dissociation half-life t1/2 were determined from the corrected sensorgrams by fitting the data to a 1:1 Langmuir binding model with the Biacore™ T200 evaluation software.

T2 sequence (P08473 52-750 limits assumed): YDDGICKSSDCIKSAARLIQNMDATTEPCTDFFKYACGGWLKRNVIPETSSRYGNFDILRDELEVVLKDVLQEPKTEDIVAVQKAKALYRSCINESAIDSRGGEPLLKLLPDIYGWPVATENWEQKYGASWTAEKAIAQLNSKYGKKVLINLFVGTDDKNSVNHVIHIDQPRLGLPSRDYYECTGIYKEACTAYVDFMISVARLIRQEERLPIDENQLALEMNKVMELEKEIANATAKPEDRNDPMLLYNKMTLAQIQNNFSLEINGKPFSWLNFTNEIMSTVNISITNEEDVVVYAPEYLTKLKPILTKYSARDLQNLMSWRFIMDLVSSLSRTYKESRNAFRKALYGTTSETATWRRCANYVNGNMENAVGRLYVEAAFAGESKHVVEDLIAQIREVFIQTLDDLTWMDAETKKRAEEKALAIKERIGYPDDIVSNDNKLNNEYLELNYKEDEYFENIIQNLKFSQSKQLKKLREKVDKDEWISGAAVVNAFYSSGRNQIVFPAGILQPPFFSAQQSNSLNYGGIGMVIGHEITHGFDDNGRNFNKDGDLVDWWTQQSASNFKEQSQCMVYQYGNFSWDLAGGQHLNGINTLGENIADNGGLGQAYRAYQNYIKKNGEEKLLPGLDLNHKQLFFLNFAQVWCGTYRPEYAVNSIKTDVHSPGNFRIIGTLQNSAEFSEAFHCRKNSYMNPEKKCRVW
T4 sequence (P08473 52-750 limits assumed): as above

Row | IC50 [1] | remaining at 24 h, 10 μM (NEP) | remaining at 4 h, […] [2] | t1/2 category (activity) [3] | % intact compound remaining after 24 h incubation [4] | % intact compound remaining (incubation time) [2] | Kd [3] | Compound | affinity of binding to CAIX (human CAIX)
1 | < 10 nM | > 95% | > 95% |  |  |  |  | CC(=O)N[C@H](C(=O)N[C@@H](Cc1ccc(O)cc1)C(=O)N[C@H]1CSCc2cccc(c2)CSC[C@@H](C(N)=O)NC(=O)[C@H](CCC(N)=O)NC(=O)[C@H](Cc2c[nH]c3ccccc23)NC(=O)[C@H]([C@@H](C)O)NC(=O)[C@H](CC(C)C)NC(=O)[C@H](Cc2c[nH]c3ccccc23)NC(=O)[C@H](CC(=O)O)NC(=O)CNC(=O)[C@H](CCC(=O)O)NC1=O)C(C)C [3BP-2837] (Ac-VYCEGDWLTWQC-NH2; linker 3-12 via mXylylene) | 
2 |  | 82% | 95% |  |  |  |  | CC(=O)N[C@H](C(=O)N[C@@H](Cc1ccc(O)cc1)C(=O)N[C@H]1CSCc2cccc(c2)CSC[C@@H](C(=O)NCCCOCCOCCOCCCNC(=O)CCC(=O)N[C@@H](CCCCNC(=O)CN2CCN(CC(=O)O)CCN(CC(=O)O)CCN(CC(=O)O)CC2)C(N)=O)NC(=O)[C@H](CCC(N)=O)NC(=O)[C@H](Cc2c[nH]c3ccccc23)NC(=O)[C@H]([C@@H](C)O)NC(=O)[C@H](CC(C)C)NC(=O)[C@H](Cc2c[nH]c3ccccc23)NC(=O)[C@H](CC(=O)O)NC(=O)CNC(=O)[C@H](CCC(=O)O)NC1=O)C(C)C [3BP-2949] (Ac-VYCEGDWLTWQC-X16; linker 3-12 via mXylylene; N-terminus and C-terminus assumed) | 
3 | < 10 nM |  |  | D (t1/2≤2.0 minutes) | >95% | >95% |  | CC(C)C[C@@H]1NC(=O)[C@H](Cc2c[nH]c3ccccc23)NC(=O)[C@H](CC(=O)O)NC(=O)CNC(=O)[C@H](CCC(=O)O)NC(=O)[C@@H](NC(=O)[C@H](Cc2ccc(O)cc2)NC(=O)[C@@H](NC(=O)CCC(=O)NCCCOCCOCCOCCCNC(=O)CN2CCN(CC(=O)O)CCN(CC(=O)O)CCN(CC(=O)O)CC2)C(C)C)CSCc2cccc(c2)CSC[C@@H](C(N)=O)NC(=O)[C@H](CCC(N)=O)NC(=O)[C@H](Cc2c[nH]c3ccccc23)NC(=O)[C@H]([C@@H](C)O)NC1=O [3BP-2959] ({X3-Suc}-VYCEGDWLTWQC-NH2; linker 3-12 via mXylylene) | 
4 | < 10 nM | > 95% | 95% | C (t1/2 between 2.1 and 5.0 minutes) |  |  | < 10 nM | CC(=O)N[C@H](C(=O)N[C@@H](Cc1ccc(O)cc1)C(=O)N[C@H]1CSCc2cccc(c2)CSC[C@@H](C(N)=O)NC(=O)[C@H](C)NC(=O)[C@H](Cc2c[nH]c3ccccc23)NC(=O)[C@H]([C@@H](C)O)NC(=O)[C@H](CC(C)C)NC(=O)[C@H](Cc2c[nH]c3ccccc23)NC(=O)[C@H](CC(=O)O)NC(=O)CNC(=O)[C@H](CCC(=O)O)NC1=O)C(C)C [3BP-3058] (Ac-VYCEGDWLTWAC-NH2; linker 3-12 via mXylylene) | 
5 | < 10 nM |  |  |  | >95% | >95% |  | CC(=O)N[C@@H](CCCCNC(=O)CN1CCN(CC(=O)O)CCN(CC(=O)O)CCN(CC(=O)O)CC1)C(=O)N[C@H](C(=O)N[C@@H](Cc1ccc(O)cc1)C(=O)N[C@H]1CSCc2cccc(c2)CSC[C@@H](C(N)=O)NC(=O)[C@H](C)NC(=O)[C@H](Cc2c[nH]c3ccccc23)NC(=O)[C@H]([C@@H](C)O)NC(=O)[C@H](CC(C)C)NC(=O)[C@H](Cc2c[nH]c3ccccc23)NC(=O)[C@H](CC(=O)O)NC(=O)[C@H]2CCCN2C(=O)[C@H](CCC(=O)O)NC1=O)C(C)C [3BP-3427] (Ac-K(DOTA)VYCE[dP]DWLTWAC-NH2; linker 4-13 via mXylylene) | 
6 | < 10 nM |  |  | A (t1/2>15.0 minutes) | >95% | 98% | < 10 nM | CC(C)C[C@@H]1NC(=O)[C@H](Cc2c[nH]c3ccccc23)NC(=O)[C@H](CC(=O)O)NC(=O)[C@H]2CCCN2C(=O)[C@H](CCC(=O)O)NC(=O)[C@@H](NC(=O)[C@H](Cc2ccc(O)cc2)NC(=O)[C@@H](NC(=O)CN2CCC(NC(=O)CN3CCN(CC(=O)O)CCN(CC(=O)O)CCN(CC(=O)O)CC3)CC2)C(C)C)CSCc2cccc(c2)CSC[C@@H](C(N)=O)NC(=O)[C@H](C)NC(=O)[C@H](Cc2c[nH]c3ccccc23)NC(=O)[C@H]([C@@H](C)O)NC1=O [3BP-3432] ({DOTA}-[X2]VYCE[dP]DWLTWAC-NH2; linker 4-13 via mXylylene) | 
7 | < 10 nM |  |  |  | >95% | >95% |  | CC(=O)N[C@H](C(=O)N[C@@H](Cc1ccc(O)cc1)C(=O)N[C@H]1CSCc2cccc(c2)CSC[C@@H](C(=O)NCCCCCNC(=O)CN2CCN(CC(=O)O)CCN(CC(=O)O)CCN(CC(=O)O)CC2)NC(=O)[C@H](C)NC(=O)[C@H](Cc2c[nH]c3ccccc23)NC(=O)[C@H]([C@@H](C)O)NC(=O)[C@H](CC(C)C)NC(=O)[C@H](Cc2c[nH]c3ccccc23)NC(=O)[C@H](CC(=O)O)NC(=O)[C@H]2CCCN2C(=O)[C@H](CCC(=O)O)NC1=O)C(C)C [3BP-3434, Ac-Val-Tyr-[Cys(3MeBn)-Glu-pro-Asp-Trp-Leu-Thr-Trp-Ala-Cys]-Ape-NH-DOTA] (Ac-VYCE[dP]DWLTWAC-{NH(CH2)5NHDOTA}; linker 3-12 via mXylylene) | 
8 | < 10 nM |  |  | A (t1/2>15.0 minutes) | 63% | >95% | < 10 nM | CC(=O)N[C@H](C(=O)N[C@@H](Cc1ccc(O)cc1)C(=O)N[C@H]1CSCc2cccc(c2)CSC[C@@H](C(N)=O)NC(=O)[C@H](CCC(=O)NCCCNC(=O)CN2CCN(CC(=O)O)CCN(CC(=O)O)CCN(CC(=O)O)CC2)NC(=O)[C@H](Cc2c[nH]c3ccccc23)NC(=O)[C@H]([C@@H](C)O)NC(=O)[C@H](CC(C)C)NC(=O)[C@H](Cc2c[nH]c3ccccc23)NC(=O)[C@H](CC(=O)O)NC(=O)[C@H]2CCCN2C(=O)[C@H](CCC(=O)O)NC1=O)C(C)C [3BP-3478, Ac-Val-Tyr-[Cys(3MeBn)-Glu-pro-Asp-Trp-Leu-Thr-Trp-Glu(NH-Apr-DOTA)-Cys]-NH2] (Ac-VYCE[dP]DWLTWE(NH(CH2)3NHDOTA)C-NH2; linker 3-12 via mXylylene) | 
9 | < 10 nM | > 95% | > 95% |  |  |  |  | CC(=O)N[C@H](C(=O)N[C@@H](Cc1ccc(O)cc1)C(=O)N[C@H]1CSCc2cccc(c2)CSC[C@@H](C(N)=O)NC(=O)[C@H](CO)NC(=O)[C@H](Cc2c[nH]c3ccccc23)NC(=O)[C@H]([C@@H](C)O)NC(=O)[C@H](CC(C)(C)C)NC(=O)[C@H](Cc2c[nH]c3ccccc23)NC(=O)[C@H](CC(=O)O)NC(=O)[C@H]2CCCN2C(=O)[C@H](CCC(=O)O)NC1=O)C(C)C [3BP-3491] (Ac-VYCE[dP]DW[tBuAla]TWSC-NH2; linker 3-12 via mXylylene) | 
10 | < 10 nM | > 95% | > 95% |  |  |  |  | CC(=O)N[C@H](C(=O)N[C@@H](Cc1ccc(O)cc1)C(=O)N[C@H]1CSCc2cccc(c2)CSC[C@@H](C(N)=O)NC(=O)[C@H](C)NC(=O)[C@H](Cc2c[nH]c3ccccc23)NC(=O)[C@H]([C@@H](C)O)NC(=O)C2(CCCCC2)NC(=O)[C@H](Cc2c[nH]c3ccccc23)NC(=O)[C@H](CC(=O)O)NC(=O)[C@H]2CCCN2C(=O)[C@H](CCC(=O)O)NC1=O)C(C)C [3BP-3503] (Ac-VYCE[dP]DW[Ac6c]TWAC-NH2; linker 3-12 via mXylylene) | 
11 | < 10 nM | > 95% | 89% |  |  |  | < 10 nM | CC(=O)N[C@H](C(=O)N[C@@H](Cc1ccc(O)cc1)C(=O)N[C@H]1CSCc2cccc(c2)CSC[C@@H](C(N)=O)NC(=O)[C@H](C)NC(=O)[C@H](Cc2c[nH]c3ccccc23)NC(=O)[C@H]([C@@H](C)O)NC(=O)[C@H](CC(C)C)NC(=O)[C@H](Cc2c[nH]c3ccccc23)NC(=O)[C@H](CC(=O)O)NC(=O)CN(CCCCNC(=O)CN2CCN(CC(=O)O)CCN(CC(=O)O)CCN(CC(=O)O)CC2)C(=O)[C@H](CCC(=O)O)NC1=O)C(C)C [3BP-3562, Ac-Val-Tyr-[Cys(3MeBn)-Glu-Nlys(DOTA)-Asp-Trp-Leu-Thr-Trp-Ala-Cys]-NH2] (Ac-VYCE[Nlys](DOTA)DWLTWAC-NH2; linker 3-12 via mXylylene) | 
12 |  |  |  |  |  |  |  | CC(C)C[C@@H]1NC(=O)[C@H](Cc2cccc(NC(=O)CCCS(N)(=O)=O)c2)NC(=O)[C@H](CC(=O)O)NC(=O)[C@H]2CCCN2C(=O)[C@H](CCC(=O)O)NC(=O)[C@@H](NC(=O)[C@H](CCC(N)=O)NC(=O)CN2CCN(C(=O)CN3CCN(CC(=O)O)CCN(CC(=O)O)CCN(CC(=O)O)CC3)CC2)CSCc2cccc(c2)CSC[C@@H](C(N)=O)NC(=O)[C@H](CO)NC(=O)[C@H](Cc2c[nH]c3ccccc23)NC(=O)[C@H]([C@@H](C)O)NC1=O [^natGa-DPI-4452, metal not drawn] | subnanomolar affinity
